Measurements as given in patent US7494996B2 (priority 2000, dated 2009).

Key:
[1] = tested on: Sphaerotheca fuliginea; test: Cucumber Powdery Mildew (CPM) protectant test in the greenhouse; assay type: in vivo; conditions: 100 is total disease control, 0 is no disease control; for Cucumber Powdery Mildew (CPM) protectant fungicide data, percent control: 300 g/ha; for pest or weed control at 300 g/ha: Podosphaera fuliginea, topical, 168 h, read-out: Cucumber Powdery Mildew (CPM) protectant fungicide data, percent control
How it was run: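 Compounds in acetone-methanol-water (1:1:2) sprayed onto cucumber cv. "Bush Champion" (cotyledons plus one true leaf, 13 days old), dried 4 h. Inoculated 1 day later with 2×10^5 spores/ml; disease control (%) rated after 7 days in greenhouse.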

[2] = tested on: Pyricularia oryzae; test: whole plant or invertebrate; assay type: in vivo; conditions: 100 is total disease control, 0 is no disease control; for Rice Blast (RB) protectant fungicide data, percent control: 300 g/ha, greenhouse; for pest or weed control at 300 g/ha: Pyricularia oryzae, topical, 144 h, read-out: Rice Blast (RB) protectant fungicide data, percent control, protectant, 300 g/ha, greenhouse

Row | SMILES | Cucumber Powdery Mildew (CPM) protectant fungicide data, percent control [1] [percent control] | Rice Blast (RB) protectant fungicide data, percent control [2] [percent control] | pest or weed control at 300 g/ha [1] [%] | pest or weed control at 300 g/ha [2] [%]
1 | CCCN1N=C(c2cc(Cl)cc(Cl)c2)NCC1=O [Compound 164] | 95 | 100 |  | 
2 | CCCCN1N=C(C)NC(c2ccc(OC)cc2)C1=O (stereo not drawn) [Compound 79] | 50 | 75 |  | 
3 | COc1ccc(C2=NN(CC(F)(F)F)C(=O)C(OC)N2)cc1 (stereo not drawn) [Compound 39] | 85 | 99 |  | 
4 | CCCCN1N=C(c2ccc(Cl)c(Cl)c2)N(C=CS(=O)(=O)c2ccccc2)CC1=O [Compound 13, 1-n-butyl-3-(3.4-dichlorophenyl)-4-(2-phenylsulfonylethene)-4,5-dihydro-1,2,4-triazin-6-one] | 0 | 95 |  | 
5 | CCCCN1N=C(c2ccc(F)c(Cl)c2)NCC1=O [Compound 106] | 95 | 100 |  | 
6 | O=C1CNC(c2ccc(Cl)cc2)=NN1Cc1ccccc1 [Compound 30] | 75 | 85 |  | 
7 | C=CCOC(=O)N1CC(=O)N(CCCC)N=C1c1ccc(Cl)c(Cl)c1 [Compound 170] | 75 | 90 |  | 
8 | CC(=O)N1CC(=O)N(CC(F)(F)F)N=C1c1cc(Cl)cc(Cl)c1 [Compound 72] | 50 | 75 |  | 
9 | O=c1cnc(-c2ccc(Cl)c(Cl)c2)nn1CC1CC1 [Compound 272] | 80 | 100 |  | 
10 | O=C1CNC(c2ccc(-c3csnn3)cc2)=NN1CC(F)(F)F [Compound 144] | 0 | 85 |  | 
11 | COC1NC(c2cc(Cl)cc(Cl)c2)=NN(CC(F)(F)F)C1=O (stereo not drawn) [Compound 18, 1-(2,2,2-Trifluoroethyl)-3-(3,5-dichlorophenyl)-5-methoxy-4,5-dihydro-1,2,4-triazin-6-one] |  |  | 75 | 95
12 | CCCCn1nc(-c2sc(C)nc2C(F)(F)F)ncc1=O [Compound 268] | 75 | 0 |  | 
13 | CCCCN1N=C(C)NC(c2c(C)cc(C)cc2C)C1=O (stereo not drawn) [Compound 82] | 25 | 0 |  | 
14 | CCCCN1N=C(c2ccc(Cl)c(Cl)c2)N(C(=O)C(=O)OC)CC1=O [Compound 85] | 50 | 100 |  | 
15 | C=CC(=O)N1CC(=O)N(CCCC)N=C1c1cc(Cl)cc(Cl)c1 [Compound 138] | 0 | 99 |  | 
16 | CCCCN1N=C(c2cc(Cl)cc(Cl)c2)NCC1=O [Compound 104] | 80 | 99 |  | 
17 | O=C1CNC(c2cnc3ccccc3c2)=NN1CC(F)(F)F [Compound 141] | 50 | 85 |  | 
18 | O=C1CN(CC2CC2)C(c2cccc(F)c2)=NN1CC1CC1 [Compound 222] | 50 | 0 |  | 
19 | N#CCCn1nc(-c2ccc(-c3ccc([N+](=O)[O-])cc3)cc2)ncc1=O [Compound 276] | 0 | 85 |  | 
20 | O=C1CNC(c2cccc(F)c2)=NN1CC1CC1 [Compound 223] | 80 | 95 |  | 
21 | O=C1CNC(c2cccc(C(F)(F)F)c2)=NN1CC1CC1 [Compound 86] | 80 | 99 |  | 
22 | COc1c(Br)cc(C2=NN(CC(F)(F)F)C(=O)CN2)cc1Br [Compound 158] | 0 | 85 |  | 
23 | C=COC(=O)N1CC(=O)N(CCCC)N=C1c1cccc(Cl)c1Cl [Compound 136] | 80 | 100 |  | 

Row | SMILES | Cucumber Powdery Mildew (CPM) protectant fungicide data, percent control [1] [percent control] | Rice Blast (RB) protectant fungicide data, percent control [2] [percent control] | pest or weed control at 300 g/ha [1] [%] | pest or weed control at 300 g/ha [2] [%]
24 | CS(=O)(=O)N1CC(=O)N(CC(F)(F)F)N=C1c1ccc(Cl)cc1 [Compound 42] | 50 | 99 |  | 
25 | C=CCOC(=O)N1CC(=O)N(CC(F)(F)F)N=C1c1cc(Cl)cc(Cl)c1 [Compound 10, 1-(2,2,2-trifluoroethyl)-3-(3,5-dichlorophenyl)-4-allyloxycarbonyl-4,5-dihydro-1,2,4-triazin-6-one] |  |  | 0 | 90
26 | C[Si](C)(C)CN1N=C(c2ccc(Cl)cc2)NCC1=O [Compound 61] | 50 | 85 |  | 
27 | O=C1CNC(c2ccc(-c3ccc([N+](=O)[O-])cc3)cc2)=NN1CC(F)(F)F [Compound 142] | 0 | 80 |  | 
28 | CCCCN1N=C2C=CC(c3ccc(Cl)cc3)=NN2CC1=O [Compound 229] |  |  | 50 | 0
29 | CCCCN1N=C(c2ccc(C3=NN(CCCC)C(=O)CN3)cc2)NCC1=O [Compound 230] |  |  | 0 | 75
30 | CCCCn1nc(-c2cc(Cl)ccc2Cl)ncc1=O [Compound 269] | 0 | 99 |  | 
31 | Cc1cccc(N2N=C(c3ccc(OCC(F)(F)F)nc3)NCC2=O)c1 [Compound 188] | 0 | 80 |  | 
32 | O=C1CNC(c2ccc(Cl)c(Cl)c2)=NN1CC(F)(F)F [Compound 99] | 80 | 100 |  | 
33 | CCCCN1N=C(c2ccc(OC)cc2)NC(C)C1=O (stereo not drawn) [Compound 38] | 50 | 0 |  | 
34 | O=c1cnc(-c2ccccc2)n[nH]1 [Compound 243] | 0 | 75 |  | 
35 | CCCCCN1N=C2C=CC(c3ccc(Cl)cc3)=NN2CC1=O [Compound 24, 2-Pentyl-7-(4-chlorophenyl)-pyridazino[6,1-c][1,2,4]triazin-3(4H)one] |  |  | 50 | 0
36 | C#CCN1N=C(c2cccc(Br)c2)NCC1=O [Compound 227] | 75 | 90 |  | 
37 | C#CCN1CC(=O)N(CC(F)(F)F)N=C1c1cccc(C(F)(F)F)c1 [Compound 89] | 0 | 75 |  | 
38 | O=C1CNC(c2ccc(F)c(F)c2)=NN1CC(F)(F)F [Compound 98] | 75 | 85 |  | 
39 | CCCCN1N=C(C)NC(c2ccccc2)C1=O (stereo not drawn) [Compound 92] | 50 | 0 |  | 
40 | O=C1CNC(c2cccc([N+](=O)[O-])c2)=NN1CC(F)(F)F [Compound 167] | 0 | 85 |  | 
41 | CCCCN1N=C(c2cc(Cl)cc(Cl)c2)N(C(=O)SC)CC1=O [Compound 129] | 75 | 50 |  | 
42 | CCCCn1nc(-c2ccc(OC)cc2)ncc1=O [Compound 244] | 50 | 100 |  | 
43 | CCCCN1N=C(c2ccc(-c3ccc(C(=O)OCC)cc3)cc2)NCC1=O [Compound 206] | 80 | 85 |  | 
44 | COc1cccc(C2=NN(CC(F)(F)F)C(=O)CN2)c1 [Compound 46] | 0 | 80 |  | 
45 | C=CC1NC(c2ccc(Cl)c(Cl)c2)=NN(CCCC)C1=O (stereo not drawn) [Compound 202] | 0 | 90 |  | 
